Target: T1, TRAP1 enzyme (Homo sapiens, UniProt Q12931)
T1 sequence (Q12931 60-704): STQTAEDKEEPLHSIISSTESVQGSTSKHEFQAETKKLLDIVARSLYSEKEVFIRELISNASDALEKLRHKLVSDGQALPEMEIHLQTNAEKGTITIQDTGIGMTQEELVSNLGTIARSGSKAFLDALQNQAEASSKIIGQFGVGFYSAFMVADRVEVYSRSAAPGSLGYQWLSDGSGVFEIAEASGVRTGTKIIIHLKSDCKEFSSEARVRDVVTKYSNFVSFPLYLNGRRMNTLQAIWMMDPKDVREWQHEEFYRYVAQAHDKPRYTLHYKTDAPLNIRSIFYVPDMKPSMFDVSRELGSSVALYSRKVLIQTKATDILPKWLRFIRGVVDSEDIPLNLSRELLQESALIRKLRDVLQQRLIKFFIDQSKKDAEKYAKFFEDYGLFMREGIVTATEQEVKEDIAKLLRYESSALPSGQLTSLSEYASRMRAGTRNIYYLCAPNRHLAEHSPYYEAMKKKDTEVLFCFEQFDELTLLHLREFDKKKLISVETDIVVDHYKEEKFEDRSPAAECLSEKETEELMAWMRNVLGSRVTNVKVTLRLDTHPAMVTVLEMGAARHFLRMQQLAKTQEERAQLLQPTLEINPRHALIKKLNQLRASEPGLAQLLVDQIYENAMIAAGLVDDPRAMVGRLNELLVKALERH
Experiment: Malachite green phosphate assay of TRAP1 ATPase activity
Format: biochemical
Settings: for EC50: TRAP1 ATPase activation, 150 nM Trap1, 20 μM ATP, geometric mean, read-out: Malachite Green Fluor DRC: GeoMean EC50; for Emax: read-out: Malachite Green Fluor DRC: Mean Emax
How it was run: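 Compound (0.78 μM-100 μM) preincubated with 150 nM TRAP1 in 50 mM HEPES pH 7.5, 20 mM KCl, 4 mM MgCl2, 0.05% BSA, 30 min at 37 °C; reaction started with 20 μM ATP, 180 min at 37 °C. Phosphate quantified by malachite green against a standard curve; Emax and EC50 from sigmoidal fits of activation.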

| SMILES | EC50 | Emax |
| --- | --- | --- |
| COc1ccc(NC(=O)c2cnc(-c3ccccc3)[nH]2)cc1S(=O)(=O)Nc1ccc(N=[N+]=[N-])cc1 [Compound 380, N-(3-(N-(4-azidophenyl)sulfamoyl)-4-methoxyphenyl)-2-phenyl-1H-imidazole-5-carboxamide] | < 10 µM | 160 to 199% |
| Cc1ccc(NS(=O)(=O)c2cc(NC(=O)c3cnc(C(F)(F)F)[nH]3)ccc2F)cc1 [Compound 278] | 10 to 20 µM | 160 to 199% |
| COc1ccc(NC(=O)c2cnc(C(F)(F)F)[nH]2)cc1S(=O)(=O)N(CCCCCO)c1ccc(Br)cc1 [Compound 431, N-(3-(N-(4-bromophenyl)-N-(5-hydroxypentyl)sulfamoyl)-4-methoxyphenyl)-2-(trifluoromethyl)-1H-imidazole-5-carboxamide] | 20 to 100 µM | > 300% |
| COc1ccc(NC(=O)c2cnc(C(F)(F)F)[nH]2)cc1S(=O)(=O)Nc1ccc(-c2ccccc2)cc1 [Compound 353] | 20 to 100 µM | 200 to 300% |
| COc1ccc(NC(=O)c2cnc(C(F)(F)F)[nH]2)cc1S(=O)(=O)N(CCCCCC(=O)O)c1ccc(Br)cc1 [Compound 264] | 10 to 20 µM | 160 to 199% |
| COc1ccc(NC(=O)c2cnc(C(F)(F)F)[nH]2)cc1S(=O)(=O)N1Cc2cccc(F)c2C1 [Compound 225] | 10 to 20 µM | 160 to 199% |
| Cc1ccc(NS(=O)(=O)c2cccc(NC(=O)c3cnc(C(F)(F)F)[nH]3)c2)cc1 [Compound 271] | 10 to 20 µM | 160 to 199% |
| CC(=O)c1c(C)[nH]c(C(=O)Nc2cccc(S(=O)(=O)N3CCCC3)c2)c1C [Compound 148] | 10 to 20 µM | 200 to 300% |
| Cc1ccc2c(c1)OCCN2S(=O)(=O)c1cccc(NC(=O)c2ncco2)c1 [Compound 324] | 20 to 100 µM | 200 to 300% |
| Cc1ncoc1C(=O)Nc1cccc(S(=O)(=O)N2CCCc3cc(Cl)ccc32)c1 [Compound 429] | 10 to 20 µM | 200 to 300% |
| COc1ccc(NC(=O)c2cnc(C(F)(F)F)[nH]2)cc1S(=O)(=O)Nc1ccc(C)cc1 [Compound 224] | 20 to 100 µM | 123 to 159% |
| COc1ccc(NC(=O)c2cnc(C(F)(F)F)[nH]2)cc1S(=O)(=O)Nc1cccc(C(C)(C)C)c1 [Compound 368] | 20 to 100 µM | 200 to 300% |
| COc1ccc(NC(=O)c2cnc[nH]2)cc1S(=O)(=O)N(CCOCCOCC[P+](c1ccccc1)(c1ccccc1)c1ccccc1)c1ccc(Br)cc1 [Compound 296] | < 10 µM | 200 to 300% |
| COc1ccc(NC(=O)c2cnc[nH]2)cc1S(=O)(=O)N(CCOCCOCCBr)c1ccc(Br)cc1 [Compound 286] | < 10 µM | 160 to 199% |
| CN(c1ccc(Br)cc1)S(=O)(=O)c1cc(NC(=O)c2cnc[nH]2)ccc1OCCCCCC[P+](c1ccccc1)(c1ccccc1)c1ccccc1 [Compound 363] | < 10 µM | > 300% |
| O=C(Nc1ccc(F)c(S(=O)(=O)Nc2ccc(F)cc2)c1)c1cnc(C(F)(F)F)[nH]1 [Compound 220] | 10 to 20 µM | 160 to 199% |
| COc1ccc(NC(=O)c2cnc(C(F)(F)F)[nH]2)cc1S(=O)(=O)Nc1ccc(C(C)(C)C)cc1 [Compound 360] | 20 to 100 µM | 200 to 300% |
| COc1ccc(NC(=O)c2cnc(C(F)(F)F)[nH]2)cc1S(=O)(=O)N(CCCCCN1CCOCC1)c1ccc(Br)cc1 [Compound 433] | 10 to 20 µM | 123 to 159% |
| COc1ccc(NC(=O)c2cnc(-c3ccccc3)[nH]2)cc1S(=O)(=O)N(CCCCCCO)c1ccc(Br)cc1 [Compound 253] | 10 to 20 µM | 160 to 199% |
| O=C(Nc1ccc(F)c(S(=O)(=O)Nc2ccc(Br)cc2)c1)c1cnc(-c2ccccc2)[nH]1 [Compound 168] | 10 to 20 µM | 200 to 300% |
| COc1ccc(NC(=O)c2nc(C(F)(F)F)cs2)cc1S(=O)(=O)Nc1ccc(Br)cc1 [Compound 370, N-(3-(N-(4-bromophenyl)sulfamoyl)-4-methoxyphenyl)-4-(trifluoromethyl) thiazole-2-carboxamide] | 20 to 100 µM | 200 to 300% |
| COc1ccc(NC(=O)c2cnccc2C)cc1S(=O)(=O)Nc1ccccc1C [Compound 64] | 20 to 100 µM | 160 to 199% |
| COc1ccc(NC(=O)c2cnc[nH]2)cc1S(=O)(=O)N(CCCCCCBr)c1ccc(Br)cc1 [Compound 251, N-(3-(N-(6-bromohexyl)-N-(4-bromophenyl)sulfamoyl)-4-methoxyphenyl)-1H-imidazole-5-carboxamide] | < 10 µM | 200 to 300% |
| COc1ccc(NC(=O)c2cnc(C(F)(F)F)[nH]2)cc1S(=O)(=O)N(CCCCN1CCCC1)c1ccc(Br)cc1 [Compound 437] | 20 to 100 µM | 160 to 199% |
| COc1ccc(NC(=O)c2cnc(-c3ccccc3)[nH]2)cc1S(=O)(=O)Nc1ccncc1 [Compound 213] | 20 to 100 µM | 160 to 199% |

More lines, now with the values ahead:

| EC50 | Emax | SMILES |
| --- | --- | --- |
| < 10 µM | 160 to 199% | COc1ccc(NC(=O)c2cccn2-c2ccccc2)cc1S(=O)(=O)Nc1c(C)cccc1C [Compound 1042] |
| 10 to 20 µM | 160 to 199% | CC(C)c1ccc(NC(=O)c2cnc(-c3ccccc3)o2)cc1S(=O)(=O)Nc1ccc(Cl)cc1 [Compound 576] |
| < 10 µM | 160 to 199% | O=C(Nc1ccc(OC(F)(F)F)c(S(=O)(=O)Nc2c(Cl)cccc2Cl)c1)c1cnc(-c2ccccc2)o1 [Compound 655] |
| 10 to 20 µM | 123 to 159% | COc1ccc(NC(=O)c2ncc(-c3ccccc3)s2)cc1S(=O)(=O)Nc1c(C)cccc1C [Compound 449] |
| 20 to 100 µM | 200 to 300% | O=C(Nc1ccc(F)c(S(=O)(=O)Nc2ccc(Cl)cc2)c1)c1cc(Cl)ncc1C(F)(F)F [Compound 743] |
| 20 to 100 µM | > 300% | COc1ccc(NC(=O)c2cnc(-c3ccccc3)[nH]2)cc1S(=O)(=O)N(CCOCCOCCOCCN)c1ccc(Br)cc1 [Compound 526, N-(3-(N-(2-(2-(2-(2-aminoethoxy)ethoxy)ethoxy)ethyl)-N-(4-bromophenyl)sulfamoyl)-4-methoxyphenyl)-2-phenyl-1H-imidazole-5-carboxamide] |
| < 10 µM | 160 to 199% | O=C(O)/C=C/c1ccc(NC(=O)c2ncc(-c3ccccc3)o2)cc1S(=O)(=O)Nc1ccc(Cl)cc1 [Compound 648] |
| < 10 µM | 123 to 159% | C=C(C)c1nc(C(=O)Nc2ccc(OC)c(S(=O)(=O)Nc3ccc(Cl)cc3)c2)oc1-c1ccccc1 [Compound 545] |
| 20 to 100 µM | 200 to 300% | C=C(C)c1ncoc1C(=O)Nc1ccc(OC)c(S(=O)(=O)Nc2ccc(Cl)cc2)c1 [Compound 593] |
| 20 to 100 µM | 200 to 300% | Cc1ccc(NS(=O)(=O)c2cc(NC(=O)c3ncc(-c4ccccc4)o3)ccc2CC(=O)O)cc1 [Compound 541] |
| 10 to 20 µM | 160 to 199% | Cc1ncoc1C(=O)Nc1cccc(S(=O)(=O)N(c2ccc(Cl)cc2)C(C)C)c1 [Compound 551] |
| 20 to 100 µM | 123 to 159% | COc1ccc(NC(=O)c2nc(-c3ccccc3)ccc2C)cc1S(=O)(=O)Nc1ccc(Cl)cc1 [Compound 565, N-(3-(N-(4-chlorophenyl)sulfamoyl)-4-methoxyphenyl)-3-methyl-6-phenylpicolinamide] |
